For 18 compounds, kinact/KI and Ki results are on record in patent EP0471756B1, “SACCHARIN DERIVATIVES USEFUL AS PROTEOLYTIC ENZYME INHIBITORS AND PREPARATION THEREOF” (priority 1989, dated 1990).

Assay [1] deals with T1, human leukocyte elastase (HLE) (Homo sapiens, UniProt P08246).
T1 sequence (P08246 30-267): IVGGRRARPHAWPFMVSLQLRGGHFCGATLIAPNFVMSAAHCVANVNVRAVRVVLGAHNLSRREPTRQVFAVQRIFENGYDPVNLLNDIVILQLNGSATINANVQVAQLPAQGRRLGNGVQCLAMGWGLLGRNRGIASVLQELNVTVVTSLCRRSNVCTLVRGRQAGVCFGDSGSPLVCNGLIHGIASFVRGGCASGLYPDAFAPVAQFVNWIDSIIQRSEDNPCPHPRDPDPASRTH
Put plainly: Inactivation of human leukocyte elastase: kon measured, Ki* = koff/kon calculated. In kind it is biochemical. Conditions: Elastase; for kinact/KI: rate of inactivation kon = kobs/[I], value is kon x 10^-3, read-out: 10^-3 x kon.
Description: (§1) Thus, instead of measuring a Ki, a Ki* is calculated which is defined as the ratio of the koff/kon, the rate of reactivation of the enzyme to the rate of inactivation of the enzyme. The values of koff and kon are measured and Ki* is then calculated.
(§2) The rate of inactivation, kon, of enzymatic activity was determined for the compounds tested by measuring the enzyme activity of an aliquot of the respective enzyme as a function of time after addition of the test compound. […] The rate of inactivation is then equal to kon =(kobs)/([I]) [formula] where [I] is the concentration of the inhibiting compound.
(§3) The reactivation constant, koff, is similarly determined and the inhibition constant, Ki*, is then calculated as Ki * = koff /kon [formula]

In assay [2] the target is α-Chymotrypsin (Bos taurus, UniProt P00766). Put plainly: Inactivation of α-chymotrypsin: kon measured, Ki* = koff/kon calculated. The assay is classed as biochemical. The following applies: rate of inactivation kon = kobs/[I], value is kon x 10^-3.
Description: as §1, §2, §3

pKi: −log10 of the molar value.

On to `O=C1c2c(Cl)cccc2S(=O)(=O)N1CCl` [Example 3, 2-chloromethyl-4-chlorosaccharin], for which the kinact/KI was 450000 M⁻¹ s⁻¹ in assay [1] and 5800 M⁻¹ s⁻¹ in assay [2].

Consider `O=C1c2ccccc2S(=O)(=O)N1CS(=O)(=O)c1ncccn1` [Example 14, 2-(2-pyrimidylsulfonylmethyl)saccharin], for which the kinact/KI in assay [1] is 600 M⁻¹ s⁻¹; in assay [2], 2800 M⁻¹ s⁻¹.

In the case of `O=C1c2ccccc2S(=O)(=O)N1C[S+]([O-])c1nnnn1-c1ccccc1` (stereo not drawn) [Example 10, 2-(1-phenyl-1H-tetrazol-5-ylsulfinylmethyl)saccharin], the kinact/KI in assay [1] and in assay [2] was 7000 M⁻¹ s⁻¹ in each case.

In the case of `Cn1nnnc1SCN1C(=O)c2ccccc2S1(=O)=O` [Example 8, 2-(1-methyl-1H-tetrazol-5-ylthiomethyl)saccharin], the negative-log Ki (pKi) in assay [1] (Ki* = koff/kon, not a truly reversible inhibition constant) was 7.09. For the same compound, the kinact/KI in assay [1] was 1000 M⁻¹ s⁻¹; in assay [2], 2100 M⁻¹ s⁻¹.

`CC(=O)OCN1C(=O)c2c(Cl)cccc2S1(=O)=O` [Example 2, 2-acetoxymethyl-4-chlorosaccharin]: the kinact/KI in assay [1] was 4900 M⁻¹ s⁻¹; in assay [2], 2900 M⁻¹ s⁻¹.

Turning to `O=C1c2c(-c3ccccc3)cccc2S(=O)(=O)N1CCl` [Example 18, 2-chloromethyl-4-phenylsaccharin], the figures for the kinact/KI in assay [1] and in assay [2] were 1000 M⁻¹ s⁻¹ and 210 M⁻¹ s⁻¹, respectively.

For the compound `O=C1c2c(Cl)cccc2S(=O)(=O)N1Cn1nnn(-c2ccccc2)c1=S` [Example 5, 4-chloro-2-(4-phenyl-5-thioxotetrazolin-1-ylmethyl)saccharin], the kinact/KI is 44000 M⁻¹ s⁻¹ in assay [1] and 6000 M⁻¹ s⁻¹ in assay [2].

On to `O=C1c2ccccc2S(=O)(=O)N1CS(=O)(=O)c1ccccc1` [Example 12, 2-(phenylsulfonylmethyl)saccharin], for which the kinact/KI in assay [1] is 970 M⁻¹ s⁻¹; in assay [2] it was 1100 M⁻¹ s⁻¹.

Turning to `CC(=O)OCN1C(=O)c2c(C)cccc2S1(=O)=O` [Example 1, 2-acetoxymethyl-4-methylsaccharin], the values for the kinact/KI in assay [1] and in assay [2] were 630 M⁻¹ s⁻¹ and 1200 M⁻¹ s⁻¹, respectively.

Regarding `CC(=O)Nc1cccc(-n2nnnc2SCN2C(=O)c3ccccc3S2(=O)=O)c1` [Example 6, 2-[1-(3-acetamidophenyl)-1H-tetrazol-5-ylthiomethyl]saccharin], the kinact/KI is 5500 M⁻¹ s⁻¹ in assay [1] and 3700 M⁻¹ s⁻¹ in assay [2].

As for `O=C1c2ccccc2S(=O)(=O)N1CS(=O)(=O)c1c(Cl)cccc1Cl` [Example 32A, 2-(2,6-dichlorophenylsulfonylmethyl)saccharin], the kinact/KI in assay [1] was 600 M⁻¹ s⁻¹.

As to `O=C(O)c1ccc(-n2nnnc2SCN2C(=O)c3ccccc3S2(=O)=O)cc1` [Example 30D], the kinact/KI in assay [1] is 800 M⁻¹ s⁻¹.

With `O=C1c2ccccc2S(=O)(=O)N1CSc1nc2ccc([N+](=O)[O-])cc2o1` [Example 30BE], the kinact/KI in assay [1] is 7400 M⁻¹ s⁻¹.

`CC(C)c1cccc2c1C(=O)N(CSc1nnnn1C)S2(=O)=O` [Example 30AN]: the kinact/KI in assay [1] is 19000 M⁻¹ s⁻¹.

As for `O=C1c2ccccc2S(=O)(=O)N1C[S+]([O-])c1ncccn1` (stereo not drawn) [Example 13, 2-(2-pyrimidylsulfinylmethyl)saccharin], the kinact/KI was 300 M⁻¹ s⁻¹ in assay [1] and 2600 M⁻¹ s⁻¹ in assay [2].

Consider `CCCCCCC(=O)Nc1cccc(-n2nnnc2SCN2C(=O)c3ccccc3S2(=O)=O)c1` [Example 7, 2-[1-(3-heptanamidophenyl)-1H-tetrazol-5-ylthiomethyl]saccharin], for which the kinact/KI in assay [1] was 5200 M⁻¹ s⁻¹.

Regarding `CCC(C)c1cccc2c1C(=O)N(CCl)S2(=O)=O` (stereo not drawn) [Example 22B, 2-chloromethyl-4-sec.-butylsaccharin], the kinact/KI in assay [1] is 2400 M⁻¹ s⁻¹.

With `O=C1c2ccccc2S(=O)(=O)N1CSc1nc2ccc([N+](=O)[O-])cc2s1` [Example 30BD], in assay [1], the kinact/KI was 11700 M⁻¹ s⁻¹.
